# Patent publication US20240398817A1, “CARDIO- AND RENOSAFE ANTIDIABETIC THERAPY” (priority 2018, published 2024)
# Tested on: patients with type 2 diabetes at high vascular risk
# Assay: Cardiovascular and Renal Outcomes Trial: linagliptin 5 mg once daily vs placebo on top of standard of care
# Format: in vivo
# Details: for Hazard ratio for hospitalised heart failure: vs placebo
# Procedure: The effect of linagliptin on cardiovascular risk in adult patients with type 2 diabetes mellitus and with increased CV risk evidenced by a history of established macrovascular or renal disease (e.g. as defined herein) was evaluated in a multi-center, multi-national, randomized, double-blind parallel group trial. The trial compared the risk of experiencing a major adverse cardiovascular event (MACE) between linagliptin and placebo when these were added to and used concomitantly with standard of care treatments for diabetes (HbA1c), cardiovascular risk factors and renal disease.
# The primary endpoint in this trial was the time to first occurrence of three point (3P) MACE. A major adverse cardiac event was defined as a cardiovascular death or a nonfatal myocardial infarction (MI) or a nonfatal stroke. The statistical analysis plan tested for non-inferiority for the occurrence of (3P) MACE. […] The secondary endpoint was a renal composite, defined as renal death or sustained end stage renal disease or sustained decrease of 40% or more in eGFR.
# Type 2 diabetes patient with insufficient glycemic control (naïve or pre-treated with any antidiabetic background medication, excluding treatment with GLP-1 receptor agonists, DPP-4inhibitors or SGLT-2 inhibitors if ≥consecutive 7 days, e.g. having HbA1c 6.5-10%), and high risk of cardiovascular events, e.g. defined by: • albuminuria (micro or macro) and previous macrovascular disease: e.g. defined according to Condition I as indicated below; • and/or • impaired renal function: e.g. as defined according to Condition II as indicated below;
# Background and aims: People with type 2 diabetes (T2D) are at increased risk for hospitalization for heart failure (hHF), particularly in the setting of concomitant cardiovascular (CV) and/or kidney disease. […] Here we present analyses of HF outcomes with the DPP-4 inhibitor linagliptin (LINA) vs. placebo (PBO) from a Cardiovascular and Renal Outcomes Trial assessing cardiovascular safety and renal microvascular outcome in patients with type 2 diabetes at high vascular risk, a large CV outcomes trial that enrolled participants with T2D at high risk for hHF due to concomitant CV and/or chronic kidney disease. Materials and methods: People with T2D and concomitant CV and/or kidney disease were randomized to receive LINA 5 mg, or PBO once daily (1:1), on top of standard of care. All hHF, CV outcomes, and deaths were centrally adjudicated, with individual and composite HF-related outcomes analyses comparing LINA vs. placebo. Investigator-reported HF-related adverse events, whether or not confirmed by adjudication, were also analyzed. A Cox proportional hazards model adjusting for region and history of HF was used for analyses of first events. Recurrent hHF events were analyzed using a negative binomial model.
# Methods: The present Cardiovascular and Renal Outcomes Trial randomized people with T2D and i) concomitant CV disease with UACR >30 mg/g or ii) prevalent CKD (i.e. GFR <45 ml/min/1.73m2 and/or UACR >200 mg/g) to receive the DPP-4 inhibitor linagliptin (5 mg) or placebo once daily in a double-blind fashion. The primary CV endpoint was 3P-MACE, with a key secondary kidney endpoint (adjudicated ESKD, renal death, or sustained ≥40% decrease in eGFR from baseline) and other renal outcomes (including albuminuria and eGFR slope) also assessed. Subgroups were assessed by baseline kidney function (eGFR ≥/<45 ml/min/1.73m2and eGFR ≥/<30, 45 or 60 ml/min/1.73m2).
# Adults with type 2 diabetes, HbA1c 6.5-10.0% inclusive, and high CV risk were eligible for inclusion. […] Macrovascular disease eligibility criteria was based on documented and confirmed history of myocardial infarction, coronary artery disease, stroke, carotid artery disease, or peripheral artery disease. Participants with end-stage kidney disease (ESKD), defined as eGFR <15 or requiring maintenance dialysis, were excluded.
# [1] = CKD prognosis by KDIGO Very high
# [2] = Calcium channel blockers (CCB) No
# [3] = Calcium channel blockers (CCB) Yes
# [4] = Cardiorenal risk: Albuminuria and previous macrovascular disease plus eGFR 45-75 mL/min/1.73 m^2 with an UACR >200 mg/g
# [5] = Cardiorenal risk: Albuminuria and previous macrovascular disease plus renal impairment (eGFR 15-<45 mL/min/1.73 m^2 with any UACR mg/g)
# [6] = Cardiorenal risk: Albuminuria and previous macrovascular disease without eGFR>45 mL/min/1.73 m2
# [7] = Duration of type 2 diabetes >5 to <10 years
# [8] = Duration of type 2 diabetes ≤5 years
smiles,measurement,setting,value
"CC#CCn1c(N2CCC[C@@H](N)C2)nc2c1c(=O)n(Cc1nc(C)c3ccccc3n1)c(=O)n2C [Linagliptin, 1-[(4-methyl-quinazolin-2-yl)methyl]-3-methyl-7-(2-butyn-1-yl)-8-(3-(R)-amino-piperidin-1-yl)-xanthine]",3-point MACE: hazard ratio vs placebo,Body mass index ≥30 kg/m^2,1.06
same,3-point MACE: patients with event/patients analyzed,Body mass index ≥30 kg/m^2,243/1978
same,Key secondary kidney outcome: hazard ratio vs placebo,Body mass index ≥30 kg/m^2,0.96
same,Key secondary kidney outcome: patients with event/patients analyzed,Body mass index ≥30 kg/m^2,165/1978
same,"Patients with event/patients analysed, hospitalised heart failure",Body mass index ≥30 kg/m^2,131/1978
same,Hazard ratio for hospitalised heart failure,Body mass index ≥30 kg/m^2,0.86
same,3-point MACE: hazard ratio vs placebo,CKD prognosis by KDIGO High,1.05
same,3-point MACE: patients with event/patients analyzed,CKD prognosis by KDIGO High,111/995
same,Key secondary kidney outcome: patients with event/patients analyzed,CKD prognosis by KDIGO High,57/995
same,"Patients with event/patients analysed, hospitalised heart failure",CKD prognosis by KDIGO High,45/995
same,3-point MACE: hazard ratio vs placebo,CKD prognosis by KDIGO Low,1.13
same,3-point MACE: patients with event/patients analyzed,CKD prognosis by KDIGO Low,11/232
same,Key secondary kidney outcome: patients with event/patients analyzed,CKD prognosis by KDIGO Low,8/232
same,"Patients with event/patients analysed, hospitalised heart failure",CKD prognosis by KDIGO Low,2/232
same,3-point MACE: hazard ratio vs placebo,CKD prognosis by KDIGO Medium,0.89
same,3-point MACE: patients with event/patients analyzed,CKD prognosis by KDIGO Medium,61/766
same,Key secondary kidney outcome: patients with event/patients analyzed,CKD prognosis by KDIGO Medium,14/766
same,"Patients with event/patients analysed, hospitalised heart failure",CKD prognosis by KDIGO Medium,18/766
same,3-point MACE: hazard ratio vs placebo,[1],1.04
same,3-point MACE: patients with event/patients analyzed,[1],250/1499
same,Key secondary kidney outcome: patients with event/patients analyzed,[1],248/1499
same,"Patients with event/patients analysed, hospitalised heart failure",[1],144/1499
same,"Patients with event/patients analysed, hospitalised heart failure",[2],113/2061
same,Hazard ratio for hospitalised heart failure,[2],0.86
same,"Patients with event/patients analysed, hospitalised heart failure",[3],96/1433
same,Hazard ratio for hospitalised heart failure,[3],0.94
same,3-point MACE: hazard ratio vs placebo,Calcium channel blockers No,0.91
same,3-point MACE: patients with event/patients analyzed,Calcium channel blockers No,239/2061
same,Key secondary kidney outcome: hazard ratio vs placebo,Calcium channel blockers No,1.03
same,Key secondary kidney outcome: patients with event/patients analyzed,Calcium channel blockers No,155/2061
same,3-point MACE: hazard ratio vs placebo,Calcium channel blockers Yes,1.21
same,3-point MACE: patients with event/patients analyzed,Calcium channel blockers Yes,195/1433
same,Key secondary kidney outcome: hazard ratio vs placebo,Calcium channel blockers Yes,1.05
same,Key secondary kidney outcome: patients with event/patients analyzed,Calcium channel blockers Yes,172/2860
same,3-point MACE: hazard ratio vs placebo,Cardiorenal risk Cat A,0.97
same,3-point MACE: patients with event/patients analyzed,Cardiorenal risk Cat A,117/1361
same,Key secondary kidney outcome: hazard ratio vs placebo,Cardiorenal risk Cat A,1.22
same,Key secondary kidney outcome: patients with event/patients analyzed,Cardiorenal risk Cat A,38/1361
same,3-point MACE: hazard ratio vs placebo,Cardiorenal risk Cat B,0.92
same,3-point MACE: patients with event/patients analyzed,Cardiorenal risk Cat B,86/394
same,Key secondary kidney outcome: hazard ratio vs placebo,Cardiorenal risk Cat B,0.79
same,Key secondary kidney outcome: patients with event/patients analyzed,Cardiorenal risk Cat B,51/394
same,3-point MACE: hazard ratio vs placebo,Cardiorenal risk Cat C,0.76
same,3-point MACE: patients with event/patients analyzed,Cardiorenal risk Cat C,33/253
same,Key secondary kidney outcome: hazard ratio vs placebo,Cardiorenal risk Cat C,1.53
same,Key secondary kidney outcome: patients with event/patients analyzed,Cardiorenal risk Cat C,23/253
same,3-point MACE: hazard ratio vs placebo,Cardiorenal risk Cat D,1.12
same,3-point MACE: patients with event/patients analyzed,Cardiorenal risk Cat D,163/1153
same,Key secondary kidney outcome: hazard ratio vs placebo,Cardiorenal risk Cat D,1.01
same,Key secondary kidney outcome: patients with event/patients analyzed,Cardiorenal risk Cat D,180/1153
same,3-point MACE: hazard ratio vs placebo,Cardiorenal risk Cat E,1.13
same,3-point MACE: patients with event/patients analyzed,Cardiorenal risk Cat E,32/309
same,Key secondary kidney outcome: hazard ratio vs placebo,Cardiorenal risk Cat E,1.04
same,Key secondary kidney outcome: patients with event/patients analyzed,Cardiorenal risk Cat E,35/309
same,"Patients with event/patients analysed, hospitalised heart failure",[4],67/647
same,Hazard ratio for hospitalised heart failure,[4],0.81
same,"Patients with event/patients analysed, hospitalised heart failure",[5],95/14612
same,Hazard ratio for hospitalised heart failure,[5],0.86
same,"Patients with event/patients analysed, hospitalised heart failure",[6],46/1361
same,Hazard ratio for hospitalised heart failure,[6],1.19
same,3-point MACE: hazard ratio vs placebo,Diuretics No,1.15
same,3-point MACE: patients with event/patients analyzed,Diuretics No,159/1602
same,Key secondary kidney outcome: hazard ratio vs placebo,Diuretics No,1.06
same,Key secondary kidney outcome: patients with event/patients analyzed,Diuretics No,129/1602
same,"Patients with event/patients analysed, hospitalised heart failure",Diuretics No,53/1602
same,Hazard ratio for hospitalised heart failure,Diuretics No,1.26
same,3-point MACE: hazard ratio vs placebo,Diuretics Yes,0.97
same,3-point MACE: patients with event/patients analyzed,Diuretics Yes,275/1892
same,Key secondary kidney outcome: hazard ratio vs placebo,Diuretics Yes,1.04
same,Key secondary kidney outcome: patients with event/patients analyzed,Diuretics Yes,198/1892
same,"Patients with event/patients analysed, hospitalised heart failure",Diuretics Yes,156/1892
same,Hazard ratio for hospitalised heart failure,Diuretics Yes,0.83
same,3-point MACE: hazard ratio vs placebo,[7],1.01
same,3-point MACE: patients with event/patients analyzed,[7],73/696
same,Key secondary kidney outcome: hazard ratio vs placebo,[7],0.94
same,Key secondary kidney outcome: patients with event/patients analyzed,[7],56/699
same,"Patients with event/patients analysed, hospitalised heart failure",[7],42/696
same,Hazard ratio for hospitalised heart failure,[7],0.96
same,3-point MACE: hazard ratio vs placebo,[8],0.98
same,3-point MACE: patients with event/patients analyzed,[8],45/521
same,Key secondary kidney outcome: hazard ratio vs placebo,[8],1.97
same,Key secondary kidney outcome: patients with event/patients analyzed,[8],41/521
same,"Patients with event/patients analysed, hospitalised heart failure",[8],18/521
same,Hazard ratio for hospitalised heart failure,[8],0.82
same,3-point MACE: hazard ratio vs placebo,Duration of type 2 diabetes ≥10 years,1.03
